Like-named read-outs stand apart in the source and are kept apart here.
Assays:
SW620 = assay: Tumor cell proliferation inhibition (CellTiter-Meiluncell Luminescent Cell Viability Assay); format: cell-based; conditions: Homo sapiens, 96 hours, Table I-6, IRAK4 inhibitors; for inhibition at 0.01 µM: SW-620, 10 nM, read-out: Inhibition Rate at 10 nM (%); for inhibition at 0.5 µM: SW-620, 500 nM, read-out: Inhibition Rate at 500 nM (%)
Method in brief: (§1)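 Following overnight seeding, tumor cells received serial compound dilutions to final levels that included 10 nM and 500 nM. Viability was assessed by luminescence at the end of the specified exposure time. Cultures were kept at 37°C with 5% CO2.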

JEKO-1 = assay: as above; format: cell-based; conditions: Homo sapiens, 96 hours, Table I-6, IRAK4 inhibitors; for inhibition at 0.01 µM: 10 nM, read-out: Inhibition Rate at 10 nM (%); for inhibition at 0.5 µM: 500 nM, read-out: Inhibition Rate at 500 nM (%)
Method in brief: as §1

MM.1S = assay: as above; format: cell-based; conditions: Homo sapiens, MM1.S; for inhibition at 0.01 µM: read-out: Inhibition Rate at 10 nM (%); for inhibition at 0.5 µM: read-out: Inhibition Rate at 500 nM (%)
Method in brief: as §1

MV-4-11 = assay: as above; format: cell-based; conditions: Homo sapiens, 96 hours; for inhibition at 0.01 µM: MV4-11, 10 nM, read-out: Inhibition Rate at 10 nM (%); for inhibition at 0.5 µM: MV4-11, 500 nM, read-out: Inhibition Rate at 500 nM (%)
Method in brief: as §1

[1] = target: T1, human Cereblon WT GST-tagged protein (Homo sapiens, UniProt Q96SW2); assay: CRBN-binding affinity, HTRF (CEREBLON BINDING kit); conditions: for inhibition at 0.5 µM: read-out: Inhibition Rate at 0.5 µM (%); for inhibition at 2 µM: read-out: Inhibition Rate at 2 µM (%)
T1 construct: purchased CISBIO 64BDCRBNPEH
Method in brief: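 Competitive HTRF format: test compounds diluted in diluent #9 (1X) were combined with GST-tagged Cereblon, then a premixed thalidomide-red tracer plus anti-GST europium antibody; final compound concentrations were 2 µM and 0.5 µM. Blank wells received diluent and PROTAC binding buffer instead of compound and protein.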

CDK9 = target: T2, CDK9 (Homo sapiens, UniProt P50750); assay: Western blot, target protein degradation in MDA-MB-231 Cell; format: cell-based; conditions: substrate protein remaining %, treated at 500 nM and 50 nM, 24 hours
T2 construct: endogenous in cells; host or cells: MDA-MB-231
Experimental: Conventional Western blot assay was performed to evaluate the effects of the compounds of the present disclosure on the expression of target proteins in cells.
(1) Cell Seeding and Protein Harvesting: The selected cells were processed according to the cell seeding procedure and protein harvesting procedure in Table II-2. Table II-2 Cell Seeding and Protein Harvesting Procedures
(2) To the collected supernatant, 5X SDS sample loading buffer was added, followed by denaturation at 95°C for 5 minutes. The denatured samples were then separated by SDS-PAGE electrophoresis on a polyacrylamide gel. Proteins were transferred to a nitrocellulose membrane (0.45 µm NC membrane), blocked with blocking buffer at room temperature for 1 hour, and subjected to antibody incubation and development procedures according to the antibody manufacturer's instructions (Cell Signaling Technology).
Half-Maximal Degradation Concentration value (the drug concentration required for degrading proteins by 50%, abbreviated as DC50) reads method: comparing the grayscale values of Western blot bands from drug-treated samples with those from blank DMSO-treated controls, and identifying the drug concentration range at which the grayscale value is half that of the DMSO-treated control bands.
DC50 values can be calculated using ImageJ software to measure grayscale values of Western blot bands from drug-treated samples. The concentration-response curve is fitted to estimate the drug concentration corresponding to half the grayscale value.
Target protein remaining (%) refers to the percentage of target protein remaining in cells after treatment with protein degrader compounds.
Calculation method for target protein remaining (%): Use ImageJ software to measure grayscale values of Western blot bands from drug (protein degrader)-treated samples. The grayscale value of drug-treated bands is divided by that of internal control protein bands, and the resulting quotient is normalized to obtain the relative percentage of remaining target protein after protein degrader treatment. Target protein degradation rate(%) = 1−target protein remaining(%). [formula]

[2] = MM.1S, 10 nM, 96 hours, Table I-6, IRAK4 inhibitors
[3] = MM.1S, 500 nM, 96 hours, Table I-6, IRAK4 inhibitors

T2 sequence (P50750 whole entry): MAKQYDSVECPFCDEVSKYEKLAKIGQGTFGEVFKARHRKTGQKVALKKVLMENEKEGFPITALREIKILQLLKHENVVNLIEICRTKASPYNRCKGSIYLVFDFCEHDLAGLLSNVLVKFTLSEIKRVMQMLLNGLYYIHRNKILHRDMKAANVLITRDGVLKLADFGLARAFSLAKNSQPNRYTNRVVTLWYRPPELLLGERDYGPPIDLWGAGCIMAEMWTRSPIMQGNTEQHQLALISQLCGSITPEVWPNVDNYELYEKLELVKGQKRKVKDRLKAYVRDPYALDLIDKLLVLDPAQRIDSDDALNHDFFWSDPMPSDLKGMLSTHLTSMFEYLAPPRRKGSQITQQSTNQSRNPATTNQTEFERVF
T1 sequence (Q96SW2 whole entry): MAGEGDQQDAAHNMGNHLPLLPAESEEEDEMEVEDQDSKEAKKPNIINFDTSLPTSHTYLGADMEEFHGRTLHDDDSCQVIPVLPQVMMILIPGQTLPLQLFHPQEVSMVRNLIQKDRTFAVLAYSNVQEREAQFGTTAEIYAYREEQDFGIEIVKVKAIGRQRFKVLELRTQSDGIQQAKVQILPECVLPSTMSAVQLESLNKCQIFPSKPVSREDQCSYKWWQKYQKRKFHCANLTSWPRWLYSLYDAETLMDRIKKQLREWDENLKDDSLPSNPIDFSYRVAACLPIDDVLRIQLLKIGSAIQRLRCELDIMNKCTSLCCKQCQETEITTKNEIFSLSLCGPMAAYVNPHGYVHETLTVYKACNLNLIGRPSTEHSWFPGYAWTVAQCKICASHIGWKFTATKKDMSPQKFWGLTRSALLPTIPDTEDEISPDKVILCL

inhibition at 0.5 µM [1]	inhibition at 2 µM [1]	SMILES	inhibition at 0.01 µM (SW620)	inhibition at 0.5 µM (SW620)	inhibition at 0.01 µM (JEKO-1)	inhibition at 0.5 µM (JEKO-1)	inhibition at 0.01 µM (MM.1S; [2])	inhibition at 0.5 µM (MM.1S; [3])	inhibition at 0.01 µM (MV-4-11; Table I-6, IRAK4 inhibitors)	inhibition at 0.5 µM (MV-4-11; Table I-6, IRAK4 inhibitors)	Degradation of substrate protein CDK9 (CDK9)	inhibition at 0.01 µM (MV-4-11; Table I-7, CDK9 inhibitors)	inhibition at 0.5 µM (MV-4-11; Table I-7, CDK9 inhibitors)	inhibition at 0.01 µM (MM.1S; 96 h)	inhibition at 0.5 µM (MM.1S; 96 h)
80 to 100%	80 to 100%	O=C1CCC(N2Cc3cc(CN4CCC(n5cc(NC(=O)c6cnn7ccc(N8CCOCC8)nc67)c(C(F)F)n5)CC4)ccc3C2=S)C(=O)N1 (centres unmarked) [GT-05098, N-(3-(difluoromethyl)-1-(1-((2-(2,6-dioxopiperidin-3-yl)-1-thioxoisoindolin-5-yl)methyl)piperidin-4-yl)-1H-pyrazol-4-yl)-5-morpholinopyrazolo[1,5-a]pyrimidine-3-carboxamide]	10 to 20%	40 to 50%	5 to 10%	20 to 30%	20 to 30%	80 to 100%	20 to 30%	80 to 100%	–	–	–	–	–
30 to 40%	60 to 80%	O=C1CCC(N2Cc3cc(CN4CCC(n5cc(NC(=O)c6coc(-c7ccnc(NCC8CC8)c7)n6)c(C(F)F)n5)CC4)ccc3C2=S)C(=O)N1 (centres unmarked) [GT-05286, 2-(2-((cyclopropylmethyl)amino)pyridin-4-yl)-N-(3-(difluoromethyl)-1-(1-((2-(2,6-dioxopiperidin-3-yl)-1-thioxoisoindolin-5-yl)methyl)piperidin-4-yl)-1H-pyrazol-4-yl)oxazole-4-carboxamide]	60 to 70%	70 to 80%	10 to 20%	80 to 100%	50 to 60%	80 to 100%	80 to 100%	80 to 100%	–	–	–	–	–
60 to 80%	80 to 100%	O=C1CCC(N2Cc3cc(CN4CCC(n5cc(NC(=O)c6cnn7ccc(N8C[C@H]9C[C@@H]8CO9)nc67)c(C(F)F)n5)CC4)ccc3C2=S)C(=O)N1 (stereo partly drawn) [GT-05321, 5-((1R,4R)-2-oxa-5-azabicyclo[2.2.1]heptan-5-yl)-N-(3-(difluoromethyl)-1-(1-((2-(2,6-dioxopiperidin-3-yl)-1-thioxoisoindolin-5-yl)methyl)piperidin-4-yl)-1H-pyrazol-4-yl)pyrazolo[1,5-a]pyrimidine-3-carboxamide]	30 to 40%	70 to 80%	5 to 10%	40 to 50%	30 to 40%	80 to 100%	40 to 50%	80 to 100%	–	–	–	–	–
40 to 53%	80 to 100%	N#CC1(CNc2cccc(-c3cc(NC4CCN(Cc5ccc6c(c5)CN(C5CCC(=O)NC5=O)C6=S)CC4)ncc3Cl)n2)CCOCC1 (centres unmarked) [GT-08683, 4-(((5'-chloro-2'-((1-((2-(2,6-dioxopiperidin-3-yl)-1-thioxoisoindolin-5-yl)methyl)piperidin-4-yl)amino)-[2,4'-bipyridin]-6-yl)amino)methyl)tetrahy dro-2H-pyran-4-carbonitrile]	–	–	–	–	–	–	–	–	A (0% ≤ substrate protein remaining % ≤ 80%)	50 to 60%	50 to 60%	–	–
60 to 80%	80 to 100%	O=C1CCC(N2Cc3cc(CN4CCN(c5ccc(CC(=O)Nc6cc(C7CCC7)[nH]n6)cc5)CC4)ccc3C2=S)C(=O)N1 (centres unmarked) [GT-08684, N-(5-cyclobutyl-1H-pyrazol-3-yl)-2-(4-(4-((2-(2,6-dioxopiperidin-3-yl)-1-thioxoisoindolin-5-yl)methyl)piperazin-1-yl)phenyl)acetamide]	–	–	–	–	–	–	–	–	A (0% ≤ substrate protein remaining % ≤ 80%)	–	–	–	–
60 to 80%	80 to 100%	O=C1CCC(N2Cc3ccc(CN4CCN(c5ccc(CC(=O)Nc6cc(C7CCC7)[nH]n6)cc5)CC4)cc3C2=S)C(=O)N1 (centres unmarked) [GT-08753, N-(5-cyclobutyl-1H-pyrazol-3-yl)-2-(4-(4-((2-(2,6-dioxopiperidin-3-yl)-3-thioxoisoindolin-5-yl)methyl)piperazin-1-yl)phenyl)acetamide]	–	–	–	–	–	–	–	–	A (0% ≤ substrate protein remaining % ≤ 80%)	–	–	–	–

Further lines, the compound ahead of its results:

SMILES	inhibition at 0.5 µM [1]	inhibition at 2 µM [1]	inhibition at 0.01 µM (SW620)	inhibition at 0.5 µM (SW620)	inhibition at 0.01 µM (JEKO-1)	inhibition at 0.5 µM (JEKO-1)	inhibition at 0.01 µM (MM.1S; [2])	inhibition at 0.5 µM (MM.1S; [3])	inhibition at 0.01 µM (MV-4-11; Table I-6, IRAK4 inhibitors)	inhibition at 0.5 µM (MV-4-11; Table I-6, IRAK4 inhibitors)	Degradation of substrate protein CDK9 (CDK9)	inhibition at 0.01 µM (MV-4-11; Table I-7, CDK9 inhibitors)	inhibition at 0.5 µM (MV-4-11; Table I-7, CDK9 inhibitors)	inhibition at 0.01 µM (MM.1S; 96 h)	inhibition at 0.5 µM (MM.1S; 96 h)
N#CC1(CNc2nc(-c3cc(NC4CCN(Cc5ccc6c(c5)CN(C5CCC(=O)NC5=O)C6=S)CC4)ncc3Cl)cs2)CCOCC1 (centres unmarked) [GT-08681, 4-(((4-(5-chloro-2-((1-((2-(2,6-dioxopiperidin-3-yl)-1-thioxoisoindolin-5-yl)methyl)piperidin-4-yl)amino)pyridin-4-yl)thiazol-2-yl)amino)methyl)tetrahy dro-2H-pyran-4-carbonitrile]	53 to 60%	80 to 100%	–	–	–	–	–	–	–	–	A (0% ≤ substrate protein remaining % ≤ 80%)	–	–	–	–
N#CC1(CNc2nc(-c3cc(NC4CCN(Cc5cccc6c5CN(C5CCC(=O)NC5=O)C6=S)CC4)ncc3Cl)cs2)CCOCC1 (centres unmarked) [GT-08685, 4-(((4-(5-chloro-2-((1-((2-(2,6-dioxopiperidin-3-yl)-1-thioxoisoindolin-4-yl)methyl)piperidin-4-yl)amino)pyridin-4-yl)thiazol-2-yl)amino)methyl)tetrahy dro-2H-pyran-4-carbonitrile]	53 to 60%	80 to 100%	–	–	–	–	–	–	–	–	A (0% ≤ substrate protein remaining % ≤ 80%)	–	–	–	–
N#CC1(CNc2cccc(-c3cc(NC4CCN(Cc5cccc6c5CN(C5CCC(=O)NC5=O)C6=S)CC4)ncc3Cl)n2)CCOCC1 (centres unmarked) [GT-08687, 4-(((5'-chloro-2'-((1-((2-(2,6-dioxopiperidin-3-yl)-1-thioxoisoindolin-4-yl)methyl)piperidin-4-yl)amino)-[2,4'-bipyridin]-6-yl)amino)methyl)tetrahy dro-2H-pyran-4-carbonitrile]	30 to 40%	60 to 80%	–	–	–	–	–	–	–	–	A (0% ≤ substrate protein remaining % ≤ 80%)	–	–	–	–
O=C1CCC(N2Cc3c(CN4CCN(c5ccc(CC(=O)Nc6cc(C7CCC7)[nH]n6)cc5)CC4)cccc3C2=S)C(=O)N1 (centres unmarked) [GT-08688, N-(5-cyclobutyl-1H-pyrazol-3-yl)-2-(4-(4-((2-(2,6-dioxopiperidin-3-yl)-1-thioxoisoindolin-4-yl)methyl)piperazin-1-yl)phenyl)acetamide]	60 to 80%	80 to 100%	–	–	–	–	–	–	–	–	A (0% ≤ substrate protein remaining % ≤ 80%)	40 to 50%	50 to 60%	–	–
N#CC1(CNc2cccc(-c3cc(NC4CCN(Cc5ccc6c(c5)C(=S)N(C5CCC(=O)NC5=O)C6)CC4)ncc3Cl)n2)CCOCC1 (centres unmarked) [GT-08752, 4-(((5'-chloro-2'-((1-((2-(2,6-dioxopiperidin-3-yl)-3-thioxoisoindolin-5-yl)methyl)piperidin-4-yl)amino)-[2,4'-bipyridin]-6-yl)amino)methyl)tetrahy dro-2H-pyran-4-carbonitrile]	53 to 60%	80 to 100%	–	–	–	–	–	–	–	–	A (0% ≤ substrate protein remaining % ≤ 80%)	10 to 20%	70 to 80%	–	–
CC[C@@H]1[C@H](F)C(=O)N[C@@H]1COc1nccc2cc(C(N)=O)c(OC)cc12 [PF06650833, PF-06650833, reference compound]	–	–	10 to 20%	10 to 20%	10 to 20%	20 to 30%	–	–	20 to 30%	20 to 30%	–	–	–	0 to 5%	0 to 5%

Source: patent EP4745138A1, “THIO-GLUTARIMIDO ISOINDOLINONE DERIVATIVE, BIFUNCTIONAL PROTEIN DEGRADER CONTAINING SAME, AND USES THEREOF” (Gluetacs Therapeutics (Shanghai) Co., Ltd., priority 2023, dated 2025)
